Results from the supplement of paper PMC13207355.
Where a name gives a salt, the structure may show the parent alone.

Assays:
Conditions in all cases: exposure time: 72 h
[1] = system: E31 (patient-derived glioblastoma stem cells of proneural subtype); assay: surviving fraction (nuclei count normalised to DMSO); higher = more cells surviving (less toxic)
[2] = system: E21 (patient-derived glioblastoma stem cells of mesenchymal subtype); assay: as above
[3] = system: E13 (patient-derived glioblastoma stem cells of classical subtype); assay: as above
[4] = system: E28 (patient-derived glioblastoma stem cells of classical subtype); assay: as above
[5] = system: FT3469 (normal neural stem cell line); assay: as above
[6] = system: E34 (patient-derived glioblastoma stem cells of proneural subtype); assay: as above
[7] = system: E57 (patient-derived glioblastoma stem cells of mesenchymal subtype); assay: as above
[8] = system: E31; assay: phenotypic distance (Euclidean, principal components) from DMSO controls (arbitrary units); higher = stronger morphological change
[9] = system: E21; assay: as above
[10] = system: E13; assay: as above
[11] = system: E28; assay: as above
[12] = system: FT3469; assay: as above
[13] = system: E34; assay: as above
[14] = system: E57; assay: as above
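Wherever phenotypic distance (Euclidean, principal components) from DMSO controls is given: cell Painting imaging in 384-well plates, CellProfiler features reduced to at least 20 principal components, Euclidean distance versus same-plate DMSO vehicle wells (0.1% v/v), median over six images per well.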
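Wherever surviving fraction (nuclei count normalised to DMSO) is given: nuclei counted by high-content imaging of Hoechst-stained cells in laminin-coated 384-well plates, relative to 0.1% DMSO vehicle wells, with staurosporine as cell-death control.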

OCCN1CCN(CCCN2c3ccccc3Sc3ccc(C(F)(F)F)cc32)CC1 [Fluphenazine dihydrochloride]
Conditions	phenotypic distance	surviving fraction
[1], 4.1 nM	–	1.01
[1], 12.3 nM	–	1.18
[1], 37 nM	–	1.02
[1], 111.1 nM	–	0.932
[1], 333.3 nM	–	1.09
[1], 1000 nM	–	1.22
[1], 3000 nM	–	1.13
[2], 4.1 nM	–	0.932
[2], 12.3 nM	–	0.986
[2], 37 nM	–	1.08
[2], 111.1 nM	–	0.96
[2], 333.3 nM	–	1.01
[2], 1000 nM	–	0.989
[2], 3000 nM	–	0.938
[3], 4.1 nM	–	0.959
[3], 12.3 nM	–	1.02
[3], 37 nM	–	1
[3], 111.1 nM	–	1
[3], 333.3 nM	–	0.966
[3], 1000 nM	–	0.816
[3], 3000 nM	–	0.804
[4], 4.1 nM	–	1.13
[4], 12.3 nM	–	0.846
[4], 37 nM	–	1.1
[4], 111.1 nM	–	1.04
[4], 333.3 nM	–	0.899
[4], 1000 nM	–	0.923
[4], 3000 nM	–	1.05
[5], 4.1 nM	–	0.838
[5], 12.3 nM	–	1.09
[5], 37 nM	–	0.931
[5], 111.1 nM	–	1
[5], 333.3 nM	–	1.04
[5], 1000 nM	–	0.894
[5], 3000 nM	–	0.84
[6], 4.1 nM	–	0.901
[6], 12.3 nM	–	0.986
[6], 37 nM	–	0.911
[6], 111.1 nM	–	0.993
[6], 333.3 nM	–	1.2
[6], 1000 nM	–	1.05
[6], 3000 nM	–	1.06
[7], 4.1 nM	–	1.02
[7], 12.3 nM	–	1.03
[7], 37 nM	–	1.03
[7], 111.1 nM	–	1
[7], 333.3 nM	–	1.12
[7], 1000 nM	–	1.02
[7], 3000 nM	–	1.15
[8], 4.1 nM	0.66	–
[8], 12.3 nM	0.671	–
[8], 37 nM	0.803	–
[8], 111.1 nM	1.17	–
[8], 333.3 nM	1.95	–
[8], 1000 nM	2.4	–
[8], 3000 nM	2.16	–
[9], 4.1 nM	0.339	–
[9], 12.3 nM	0.421	–
[9], 37 nM	0.601	–
[9], 111.1 nM	0.795	–
[9], 333.3 nM	0.745	–
[9], 1000 nM	0.728	–
[9], 3000 nM	1.26	–
[10], 4.1 nM	0.431	–
[10], 12.3 nM	0.337	–
[10], 37 nM	0.907	–
[10], 111.1 nM	0.69	–
[10], 333.3 nM	1.57	–
[10], 1000 nM	1.8	–
[10], 3000 nM	2.01	–
[11], 4.1 nM	0.832	–
[11], 12.3 nM	0.622	–
[11], 37 nM	0.706	–
[11], 111.1 nM	0.624	–
[11], 333.3 nM	0.662	–
[11], 1000 nM	0.755	–
[11], 3000 nM	0.877	–
[12], 4.1 nM	0.785	–
[12], 12.3 nM	0.668	–
[12], 37 nM	0.632	–
[12], 111.1 nM	0.808	–
[12], 333.3 nM	0.87	–
[12], 1000 nM	1.41	–
[12], 3000 nM	1.36	–
[13], 4.1 nM	0.947	–
[13], 12.3 nM	0.375	–
[13], 37 nM	0.734	–
[13], 111.1 nM	0.93	–
[13], 333.3 nM	1.15	–
[13], 1000 nM	0.764	–
[13], 3000 nM	1.17	–
[14], 4.1 nM	0.619	–
[14], 12.3 nM	0.504	–
[14], 37 nM	0.711	–
[14], 111.1 nM	0.787	–
[14], 333.3 nM	0.901	–
[14], 1000 nM	0.778	–
[14], 3000 nM	1.6	–
